In patent US5491155A, “Substituted thiadiazoles, compositions containing them and their use as antimicrobial and marine antifouling agents” (The Dow Chemical Company, priority 1994, dated 1996):
Where two headings read alike, the source gives them in different places.

Experiments:
Pseudomonas aeruginosa = experiment: MIC in nutrient agar, Pseudomonas aeruginosa (Pa); format: cell-based, Pseudomonas aeruginosa (ATCC 10145); settings: 48 h
Procedure: (§1) The minimum inhibitory concentration (MIC) for the compounds listed in Table I is determined for bacteria, using nutrient agar, and 7 yeast and fungi, using malt yeast agar. A one percent solution of the test compound is prepared in a mixture of acetone and water.
(§2) Nutrient agar is prepared at pH 6.8, representing a neutral medium, and at pH 8.2, representing an alkaline medium. The nutrient agars are prepared by adding 23 g of nutrient agar to one-liter of deionized water. In addition, the alkaline medium is prepared by adjusting a 0.04M solution of N-(tris-(hydroxymethyl)methyl)glycine buffered deionized water with concentrated sodium hydroxide to a pH of 8.5.
(§3) The test tubes containing the agar are cooled in a water bath until the temperature of the agar is 48° C. Then, an appropriate amount of the one percent solution of the test compound is added (except in the controls where no compound is added) to the respective test tubes so that the final concentrations are 500, 250, 100, 50, 25, 10, 2.5, 1.0 and zero parts per million of the test compound in the agar, thus having a known concentration of test compound dispersed therein. The contents of the test tubes are then transferred to respective petri plates. After drying for 24 hours, the petri plates containing nutrient agar are inoculated with bacteria and those containing malt yeast agar are inoculated with yeast and fungi.
(§4) The inoculation with bacteria is accomplished by using the following procedure. Twenty-four hour-cultures of each of the bacteria are prepared by incubating the respective bacteria in tubes containing nutrient broth for 24 hours at 30° C. in a shaker. Dilutions of each of the 24 hour-cultures are made so that nine separate suspensions (one for each of the nine test bacteria) are made, each containing 10^8 colony forming units (CFU) per mL of suspension of a particular bacteria. Aliquots of 0.3 mL of each of the bacterial suspensions are used to fill the individual wells of Steer's Replicator. For each microbial suspension, 0.3 mL was used to fill three wells (i.e., three wells of 0.3 mL each) so that for the nine different bacteria, 27 wells are filled. The Steer's Replicator is then used to inoculate both the neutral and alkaline pH nutrient agar petri plates.
(§5) The inoculated petri plates are incubated at 30° C. for 48 hours and then read to determine if the test compound which is incorporated into the agar prevented growth of the respective bacteria.
(§6) Table II lists the bacteria, yeast and fungi used in the MIC test described above along with their respective American Type Culture Collection (ATCC) identification numbers.
(§7) In Tables III and IV, the MIC values of the compounds described in Table I as compared to the MIC of a standard commercial preservative (with 1-(3-chloroalkyl)-3,5,7-triaza-1-azoniaadamantane chloride as the active agent and referred to in Tables III and IV as "STANDARD I") are set forth for the bacteria organisms and yeast/fungi organisms which are listed in Table II.

Klebsiella pneumonias = experiment: MIC in nutrient agar, Klebsiella pneumonias; format: cell-based, Klebsiella pneumonias (ATCC 8308); settings: 48 h
Procedure: as §1, §2, §3, §4, §5, §6, §7

Staphylococcus aureus = experiment: MIC in nutrient agar, Staphylococcus aureus; format: cell-based, Staphylococcus aureus (ATCC 6538); settings: 48 h
Procedure: as §1, §2, §3, §4, §5, §6, §7

Trichoderma viride = experiment: MIC in malt yeast agar, Trichoderma viride; format: cell-based, Trichoderma viride (ATCC 8678); settings: 72 h, read-out: Minimum Inhibitory Concentration (MIC)
Procedure: as §1
(§8) Malt yeast agar is prepared by adding 3 g yeast extract and 45 g malt agar per liter of deionized water. The specific agar is dispensed in 30 mL aliquots into 25×200 mm test tubes, capped and autoclaved for 15 minutes at 115° C.
as §3
(§9) The inoculation with the yeast and fungi is accomplished as follows. Cultures of yeast and fungi are incubated for seven days on malt yeast agar at 30° C. These cultures are used to prepare suspensions by the following procedure. A suspension of each organism is prepared by adding 10 mL of sterile saline and 10 microliters of octylphenoxy polyethoxy ethanol to the agar slant of yeast or fungi. The sterile saline/octylphenoxy polyethoxy ethanol solution is then agitated with a sterile swab to suspend the microorganism grown on the slant. Each resulting suspension is diluted into sterile saline (1 part suspension: 9 parts sterile saline). Aliquots of these dilutions are placed in individual wells of Steer's Replicator and petri plates inoculated as previously described. The petri plates are incubated at 30° C. and read after 48 hours for yeast and 72 hours for fungi.
as §6, §7

Escherichia coli = experiment: MIC in nutrient agar, Escherichia coli; format: cell-based, Escherichia coli (ATCC 11229); settings: 48 h
Procedure: as §1, §2, §3, §4, §5, §6, §7

[1] = system: Pseudomonas aeruginosa (PRD-10); experiment: MIC in nutrient agar, Pseudomonas aeruginosa (PRD-10); format: cell-based, Pseudomonas aeruginosa (ATCC 15442); settings: 48 h
Procedure: as §1, §2, §3, §4, §5, §6, §7

Salmonella choleraesuis = experiment: MIC in nutrient agar, Salmonella choleraesuis; format: cell-based, Salmonella choleraesuis (ATCC 10708); settings: Salmonella enterica, 48 h
Procedure: as §1, §2, §3, §4, §5, §6, §7

Saccharomyces cerevisiae = experiment: MIC in malt yeast agar, Saccharomyces cerevisiae; format: cell-based, Saccharomyces cerevisiae (ATCC 4105); settings: 48 h, read-out: Minimum Inhibitory Concentration (MIC)
Procedure: as §1, §8, §3, §9, §6, §7

Proteus vulgaris = experiment: MIC in nutrient agar, Proteus vulgaris; format: cell-based, Proteus vulgaris (ATCC 881); settings: 48 h
Procedure: as §1, §2, §3, §4, §5, §6, §7

Candida albicans = experiment: MIC in malt yeast agar, Candida albicans; format: cell-based, Candida albicans (ATCC 10231); settings: 48 h, read-out: Minimum Inhibitory Concentration (MIC)
Procedure: as §1, §8, §3, §9, §6, §7

Enterobacter aerogenes = experiment: MIC in nutrient agar, Enterobacter aerogenes; format: cell-based, Enterobacter aerogenes (ATCC 13048); settings: Klebsiella aerogenes, 48 h
Procedure: as §1, §2, §3, §4, §5, §6, §7

Fusarium oxysporum = experiment: MIC in malt yeast agar, Fusarium oxysporum; format: cell-based, Fusarium oxysporum (ATCC 48112); settings: 72 h, read-out: Minimum Inhibitory Concentration (MIC)
Procedure: as §1, §8, §3, §9, §6, §7

Aureobasidium pullulan = experiment: MIC in malt yeast agar, Aureobasidium pullulan; format: cell-based, Aureobasidium pullulan (ATCC 16622); settings: 72 h, read-out: Minimum Inhibitory Concentration (MIC)
Procedure: as §1, §8, §3, §9, §6, §7

Penicillium chrysogenum = experiment: MIC in malt yeast agar, Penicillium chrysogenum; format: cell-based, Penicillium chrysogenum (ATCC 9480); settings: 72 h, read-out: Minimum Inhibitory Concentration (MIC)
Procedure: as §1, §8, §3, §9, §6, §7

Aspergillus niger = experiment: MIC in malt yeast agar, Aspergillus niger; format: cell-based, Aspergillus niger (ATCC 16404); settings: 72 h, read-out: Minimum Inhibitory Concentration (MIC)
Procedure: as §1, §8, §3, §9, §6, §7

Bacillus subtilis = experiment: MIC in nutrient agar, Bacillus subtilis; format: cell-based, Bacillus subtilis (ATCC 8473); settings: 48 h
Procedure: as §1, §2, §3, §4, §5, §6, §7

[2] = pH 6.8, read-out: Minimum Inhibitory Concentration (MIC)
[3] = pH 8.2, read-out: Minimum Inhibitory Concentration (MIC)

Measured: MIC

N#CSc1nsnc1Cl [Example 1, 4-Chloro-3-thiocyanato-1,2,5-thiadiazole]
500 µg/mL: Bacillus subtilis; [3]
25 µg/mL: Pseudomonas aeruginosa; [2] | Klebsiella pneumonias; [2] | Staphylococcus aureus; [2] | Escherichia coli; [2] | Salmonella choleraesuis; [2] | Proteus vulgaris; [2] | Bacillus subtilis; [2]
50 µg/mL: [1]; [2] | Enterobacter aerogenes; [2]
> 500 µg/mL: Pseudomonas aeruginosa; [3] | Klebsiella pneumonias; [3] | Staphylococcus aureus; [3] | Escherichia coli; [3] | [1]; [3] | Salmonella choleraesuis; [3] | Proteus vulgaris; [3] | Enterobacter aerogenes; [3]
< 10 µg/mL: Trichoderma viride | Saccharomyces cerevisiae | Candida albicans | Fusarium oxysporum | Aureobasidium pullulan | Penicillium chrysogenum | Aspergillus niger
